This test addresses T1, hTLR7 (Homo sapiens, UniProt Q9NYK1).
T1 construct: expressed in transfected cells; host or cells: HEK-Blue hTLR7 reporter cell line
T1 sequence (Q9NYK1 27-1049): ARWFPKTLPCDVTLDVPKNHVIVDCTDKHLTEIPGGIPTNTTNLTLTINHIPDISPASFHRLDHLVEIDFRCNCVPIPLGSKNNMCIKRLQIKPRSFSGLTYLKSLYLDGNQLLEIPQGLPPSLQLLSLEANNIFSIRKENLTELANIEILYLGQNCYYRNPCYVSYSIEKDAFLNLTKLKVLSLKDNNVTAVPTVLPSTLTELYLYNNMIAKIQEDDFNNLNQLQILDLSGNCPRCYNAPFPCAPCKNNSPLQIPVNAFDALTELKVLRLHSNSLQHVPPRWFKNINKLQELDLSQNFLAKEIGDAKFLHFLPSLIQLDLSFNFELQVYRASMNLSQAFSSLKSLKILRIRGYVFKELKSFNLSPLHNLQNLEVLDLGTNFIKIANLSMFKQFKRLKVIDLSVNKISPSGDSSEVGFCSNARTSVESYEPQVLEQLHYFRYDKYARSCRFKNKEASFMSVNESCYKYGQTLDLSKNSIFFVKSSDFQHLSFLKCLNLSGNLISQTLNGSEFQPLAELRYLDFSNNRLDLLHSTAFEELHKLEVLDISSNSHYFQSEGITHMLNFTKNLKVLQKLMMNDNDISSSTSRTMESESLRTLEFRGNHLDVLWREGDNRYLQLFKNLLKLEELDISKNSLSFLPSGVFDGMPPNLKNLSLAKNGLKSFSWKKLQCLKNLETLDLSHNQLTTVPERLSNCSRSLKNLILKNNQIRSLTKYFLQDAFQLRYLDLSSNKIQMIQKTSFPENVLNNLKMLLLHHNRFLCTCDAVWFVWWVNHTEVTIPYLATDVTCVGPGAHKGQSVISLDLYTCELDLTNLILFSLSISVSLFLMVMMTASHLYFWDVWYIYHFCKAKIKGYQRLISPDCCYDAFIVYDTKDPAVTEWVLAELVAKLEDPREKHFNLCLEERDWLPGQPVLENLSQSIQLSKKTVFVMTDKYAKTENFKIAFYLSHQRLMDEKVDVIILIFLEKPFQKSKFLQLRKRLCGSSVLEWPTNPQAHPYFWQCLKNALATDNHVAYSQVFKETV
The test is described as follows: HEK-Blue hTLR7 reporter assay (NF-kB-induced SEAP, Quanti-Blue). The class given is cell-based. The procedure: HEK-Blue™ hTLR7 cells were incubated in HEK-Blue™ Detection medium and stimulated with increasing concentrations of TLR7 or TLR8 or TLR7/8 agonists. […] The EC50 was determined from dose-response curve using Prism Software.
A general note: In a reporter assay the amount or activity of a reporter protein is the signal.

Where [1] appears, read: Table 12, TLR7 agonists attached to a linker, read-out: TLR Agonist Payload + Linkers EC50.
Setting [2] is: Table 15, drug linker, read-out: TLR Agonist + Linker (DL) - EC50.
The mark [3] stands for this setting: Table 15, pAF containing final metabolite, read-out: TLR Agonist + Linker + nnAA (DL-pAF) - EC50.
The mark [4] stands for this setting: Table 19, TLR7, drug-linkers with PEG shielding, read-out: EC50.
Where [5] appears, read: Table 11, TLR7 activities, read-out: EC50.

Read-outs that look alike come from different tables or passages of the source.

As to `CCCCOc1nc(N)c2[nH]c(=O)n(Cc3ccc(CN4CCC(CCNC(=O)CCOCCON)CC4)cc3)c2n1` [AXC-880, N-(2-(1-(4-((6-amino-2-butoxy-8-oxo-7H-purin-9(8H)-yl)methyl)benzyl)piperidin-4-yl)ethyl)-3-(2-(aminooxy)ethoxy)propenamide], the EC50 (commonly the concentration needed to bring the measured effect to its halfway point) is 410 nM under setting [1], 410 nM under setting [2] and 167 nM under setting [3]. In the case of `CCCCOc1nc(N)c2[nH]c(=O)n(Cc3ccc(CN4CCC(c5ccc(N)cc5)CC4)cc3)c2n1` [AXC-908, 6-amino-9-(4-((4-(4-aminophenyl)piperidin-1-yl)methyl)benzyl)-2-butoxy-7H-purin-8(9H)-one], the EC50 (Table 14, read-out: TLR7 EC50) turned out to be 11.5 nM. For the compound `CCCCOc1nc(N)c2[nH]c(=O)n(Cc3ccc(CN4CCC(CCNC(=O)CCC(CCC(=O)NCCC5CCN(Cc6ccc(Cn7c(=O)[nH]c8c(N)nc(OCCCC)nc87)cc6)CC5)NC(=O)CON)CC4)cc3)c2n1` [AXC-889, N1,N7-bis(2-(1-(4-((6-amino-2-butoxy-8-oxo-7H-purin-9(8H)-yl)methyl)benzyl)piperidin-4-yl)ethyl)-4-(2-(aminooxy)acetamido)heptanediamide], under setting [1], the EC50 amounted to 697 nM. As to `CCCCOc1nc(N)c2[nH]c(=O)n(Cc3ccc(CN4CCC(CCNC(=O)[C@@H](CCCCNC(=O)CCOCCOCCOCCOCCOCCOCCOCCOCCOCCOCCOCCOCCOCCOCCOCCOCCOCCOCCOCCOCCOCCOCCOCCOC)NC(=O)CON)CC4)cc3)c2n1` [AXC-959, (R)—N-(2-(1-(4-((6-amino-2-butoxy-8-oxo-7,8-dihydro-9H-purin-9-yl)methyl)benzyl)piperidin-4-yl)ethyl)-2-(2-(aminooxy)acetamido)-6-PEG24-amidohexanamide], the EC50 under setting [4] worked out at 551 nM.

Turning to `CCCCOc1nc(N)c2[nH]c(=O)n(Cc3ccc(CN4CCC(CCNC(=O)[C@H](CCCCNC(=O)CON)NC(=O)CCCc5ccccc5)CC4)cc3)c2n1` [AXC-942, (S)—N-(2-(1-(4-((6-amino-2-butoxy-8-oxo-7,8-dihydro-9H-purin-9-yl)methyl)benzyl)piperidin-4-yl)ethyl)-6-(2-(aminooxy)acetamido)-2-(4-phenylbutanamido)hexanamide], under setting [4], the EC50 is 387 nM.

Turning to `CCCCOc1nc(N)c2[nH]c(=O)n(Cc3ccc(CN4CCC(CCNC(=O)CCC(N)CCC(=O)NCCC5CCN(Cc6ccc(Cn7c(=O)[nH]c8c(N)nc(OCCCC)nc87)cc6)CC5)CC4)cc3)c2n1` [AXC-888, 4-amino-N1,N7-bis(2-(1-(4-((6-amino-2-butoxy-8-oxo-7H-purin-9(8H)-yl)methyl)benzyl)piperidin-4-yl)ethyl)heptanediamide], under setting [5], the EC50 was determined as 468 nM. Consider `CCCCOc1nc(NC(C)=O)c2[nH]c(=O)n(Cc3ccc(CN4CCC(CCN)CC4)cc3)c2n1` [AXC-964, N-(9-(4-((4-(2-aminoethyl)piperidin-1-yl)methyl)benzyl)-2-butoxy-8-oxo-8,9-dihydro-7H-purin-6-yl)acetamide], for which the half-maximal effective concentration (EC50) under setting [4] worked out at 10.3 nM. The same measure, in the same setting: to `CCCCOc1nc(N)c2[nH]c(=O)n(Cc3ccc(CN4CCC(CCON)CC4)cc3)c2n1` [AXC-979, 6-amino-9-(4-((4-(2-(aminooxy)ethyl)piperidin-1-yl)methyl)benzyl)-2-butoxy-7H-purin-8(9H)-one] belongs 21.7 nM. Regarding `CCCCOc1nc(N)c2[nH]c(=O)n(Cc3ccc(CN4CCC(CCNC(=O)[C@H](CCCCNC(=O)CON)NC(=O)OCc5ccc(NC(=O)[C@H](C)NC(=O)[C@@H](NC(C)=O)C(C)C)cc5)CC4)cc3)c2n1` [AXC-926, 4-((S)-2-((S)-2-acetamido-3-methylbutanamido)propanamido)benzyl ((S)-1-((2-(1-(4-((6-amino-2-butoxy-8-oxo-7,8-dihydro-9H-purin-9-yl)methyl)benzyl)piperidin-4-yl)ethyl)amino)-6-(2-(aminooxy)acetamido)-1-oxohexan-2-yl)carbamate], for the setting “Table 18, TLR7, PEG shielding, read-out: EC50”, the EC50 worked out at 824 nM. For `CCCCOc1nc(N)c2[nH]c(=O)n(Cc3ccc(CN4CCC(CCNC(=O)[C@H](C)N)CC4)cc3)c2n1` [AXC-891, (S)-2-amino-N-(2-(1-(4-((6-amino-2-butoxy-8-oxo-7H-purin-9(8H)-yl)methyl)benzyl)piperidin-4-yl)ethyl)propanamide], the 50% effective concentration (EC50) (Table 13, TLR7, read-out: EC50) was determined as 47 nM. For the compound `CCCCOc1nc(N)c2[nH]c(=O)n(Cc3ccc(CNCCCCCCNC(=O)CON)cc3)c2n1` [AXC-882, N-(6-(4-((6-amino-2-butoxy-8-oxo-7H-purin-9(8H)-yl)methyl)benzylamino)hexyl)-2-(aminooxy)acetamide], the EC50 reads like this: under setting [1], 551 nM; under setting [2], 551 nM; under setting [3], 343 nM. For the compound `CCCCOc1nc(N)c2[nH]c(=O)n(Cc3ccc(CN4CCC(CCNC(=O)[C@@H](N)Cn5cc(CON)nn5)CC4)cc3)c2n1` [AXC-932, (S)-2-amino-N-(2-(1-(4-((6-amino-2-butoxy-8-oxo-7,8-dihydro-9H-purin-9-yl)methyl)benzyl)piperidin-4-yl)ethyl)-3-(4-((aminooxy)methyl)-1H-1,2,3-triazol-1-yl)propanamide], under setting [4], the EC50 was found to be 156 nM. For the compound `CCCCOc1nc(N)c2[nH]c(=O)n(Cc3ccc(CN4CCC(CCNC(=O)[C@H](CCCCNC(=O)CON)NC(=O)CCOCCOCCOCCOCCOCCOCCOCCOCCOCCOCCOCCOCCOCCOCCOCCOCCOCCOCCOCCOCCOCCOCCOCCOCCOCCOCCOCCOCCOCCOCCOCCOCCOCCOCCOCCOCCOC)CC4)cc3)c2n1` [AXC-941, (S)—N-(2-(1-(4-((6-amino-2-butoxy-8-oxo-7,8-dihydro-9H-purin-9-yl)methyl)benzyl)piperidin-4-yl)ethyl)-6-(2-(aminooxy)acetamido)-2-PEG37-amidohexanamide], the EC50 under setting [4] was determined as 699 nM. Regarding `NOCC(=O)NCCC1CCN(Cc2ccc(Cn3ccc4c5nc(N)ncc5ccc43)cc2)CC1` [AXC-970, N-(2-(1-(4-((2-amino-7H-pyrrolo[2,3-h]quinazolin-7-yl)methyl)benzyl)piperidin-4-yl)ethyl)-2-(aminooxy)acetamide], the EC50 (Core 3 compounds, assay not given, read-out: EC50) was above 10000 nM.

Regarding `CCCCOc1nc(N)c2[nH]c(=O)n(Cc3ccc(CN4CCC(CCNC(=O)[C@H](CCCCNC(=O)CON)NC(=O)CCCC(=O)NCCOCCOCCOCCOCCC(=O)NC(COCCC(=O)NCCOCCOCCOCCOCCOCCOCCOCCOCCOCCOCCOCCOC)(COCCC(=O)NCCOCCOCCOCCOCCOCCOCCOCCOCCOCCOCCOCCOC)COCCC(=O)NCCOCCOCCOCCOCCOCCOCCOCCOCCOCCOCCOCCOC)CC4)cc3)c2n1` [AXC-946, (S)—N-(2-(1-(4-((6-amino-2-butoxy-8-oxo-7,8-dihydro-9H-purin-9-yl)methyl)benzyl)piperidin-4-yl)ethyl)-6-(2-(aminooxy)acetamido)-2-dPEG4-(m-dPEG12)3-amidohexanamide], under setting [4], the concentration for a half-maximal effect (EC50) came to 1410 nM.

`CCCCNc1nc(N)c2[nH]c(=O)n(Cc3ccc(OCCN(C)C)nc3)c2n1` [DSR-6434, reference compound]: the 50% effective concentration (EC50) is 9.2 nM (Table 10, read-out: TLR7 EC50); 15.8 nM under setting [5]; 14.8 nM under setting [1]; 9 nM (Table 13, TLR7, read-out: EC50); 10.5 nM (Table 14, read-out: TLR7 EC50); 15 nM under setting [2]. The 50% effective concentration (EC50) is, setting by setting: under setting [3], 11 nM; under setting [4], 14 nM. Take `CCCCOc1nc(N)c2[nH]c(=O)n(Cc3ccc(CN4CCC(CCNC(=O)[C@H](CCCCNC(=O)CON)NC(=O)CCCC(=O)NCCOCCOCCOCCOCCC(=O)NC(COCCC(=O)NCCOCCOCCOCCOCCOCCOCCOCCOC)(COCCC(=O)NCCOCCOCCOCCOCCOCCOCCOCCOC)COCCC(=O)NCCOCCOCCOCCOCCOCCOCCOCCOC)CC4)cc3)c2n1` [AXC-945, (S)—N-(2-(1-(4-((6-amino-2-butoxy-8-oxo-7,8-dihydro-9H-purin-9-yl)methyl)benzyl)piperidin-4-yl)ethyl)-6-(2-(aminooxy)acetamido)-2-dPEG4-(m-dPEG8)3-amidohexanamide]: the EC50 under setting [4] is 232 nM.

For `CCCCOc1nc(N)c2[nH]c(=O)n(Cc3ccc(CN4CCC(CCNC(=O)CCN5C(=O)C=CC5=O)CC4)cc3)c2n1` [AXC-955, N-(2-(1-(4-((6-amino-2-butoxy-8-oxo-7,8-dihydro-9H-purin-9-yl)methyl)benzyl)piperidin-4-yl)ethyl)-3-(2,5-dioxo-2,5-dihydro-1H-pyrrol-1-yl)propanamide], the concentration giving a half-maximal response (EC50) under setting [4] was determined as 173 nM.

These data come from patent US20230302150A1, “ANTIBODY-TLR AGONIST CONJUGATES, METHODS AND USES THEREOF” (Ambrx, Inc., priority 2020, published 2023).
